Consider 36 molecules from PubChem BioAssay AID790 (SRMLSC, 2007).

pIC50: −log10 of the molar value. Activity calls are given as the source filed them. No rule for the calls is given here. A value given as a limit tells only on which side of the number the result lay.

Usually pIC50 stands for the IC50 on a negative log10 scale, so that one unit is a factor of ten. Usually IC50 stands for the midpoint of a concentration-inhibition curve.

System in one experiment: not listed separately
In words: growth inhibition of yeast vps1Δ mutant, dose response, S. cerevisiae, background strain comparison (AID 790). As to conditions: S. cerevisiae vps1Δ mutant growth inhibition; at 25 µM (top of the series).
With `Cc1cccc(N2CCN(CC(=O)Nc3nccs3)CC2)c1C`, the growth inhibition is 31.3% (inactive). Same read-out and setting: next, `Cc1nn(Cc2cccc(C(=O)NC(C)c3ccc(C(C)(C)C)cc3)c2)c(C)c1[N+](=O)[O-]` (stereo not drawn): 23.6% (inactive).

Still in this experiment, the particulars now being: S. cerevisiae vps1Δ mutant growth inhibition; measured here: background strain growth inhibition.
Turning to `CCCCC(c1nnnn1Cc1ccco1)N1CCN(c2nc3ccccc3s2)CC1` (stereo not drawn), the pIC50 was 5.41.

As for `Cc1cccc(N2CCN(CC(=O)Nc3nccs3)CC2)c1C`, the negative logarithm of the IC50 (pIC50) is less than 5.00. Still for that read-out and setting: next, `C=C(C)C1CC=C(CN2CC(C)OC(C)C2)CC1` (stereo not drawn): less than 5.00; `OC(COCc1ccc(Cl)cc1)CN1CC=C(c2ccccc2)CC1` (stereo not drawn): 4.68; `CCOC(=O)c1c(-n2c(C)cc(C=C3C(=O)NC(=S)NC3=O)c2C)sc2c1CCCC2`: 4.94.

On to `N[C@@H](Cc1c[nH]c2ccccc12)c1nnc(SCc2ccc(Cl)cc2)o1`, for which the pIC50 is 4.69. In turn, `Cc1nc(NC(=O)c2ccccc2)sc1-c1csc(Nc2ccc(F)cc2)n1` showed a pIC50 of less than 5.00. On the same count and under the same terms, next, `Cc1nn(Cc2cccc(C(=O)NC(C)c3ccc(C(C)(C)C)cc3)c2)c(C)c1[N+](=O)[O-]` (stereo not drawn): less than 5.00. In the case of `OC(c1ccc(Cl)cc1Cl)C(Cc1cccnc1)n1cncn1` (stereo not drawn), the negative logarithm of the IC50 (pIC50) is less than 5.00.

For the next experiment, the system named is S. cerevisiae vps1Δ mutant growth inhibition. The experiment is described as above.
Details: not given
With `O=C(Nc1nnc(-c2ccc3c(c2)CCCC3)o1)c1ccccc1`, the pIC50 was 6.10.

`O=S1(=O)C=C(Sc2nnc(-c3ccccc3)o2)c2ccccc21`: the pIC50 is 4.62. With `CCOc1nc(SCCOc2ccccc2)nc(N(C)C)n1`, the IC50 is > 10 µM (inactive). The same measure, in the same setting: next, `CC(Sc1ccsc1[N+](=O)[O-])C(=O)NCCc1ccc(Cl)cc1` (stereo not drawn): > 10 µM (inactive). In the case of `O=C(OCn1ncc(Br)c(Br)c1=O)c1ccccc1Cl`, the pIC50 is 5.17.

For the molecule `CC1CCC(C(C)C)C(OCC(O)CN2CCN(Cc3ccccc3)CC2)C1` (stereo not drawn), the IC50 was > 10 µM (inactive). Take `O=C(Nc1nnc(-c2cccs2)o1)c1cccc(C(F)(F)F)c1`: the IC50 is 1.67 µM (inactive). On to `CC1CCN(S(=O)(=O)c2ccc(NC(=O)CCN3C(=O)c4ccccc4C3=O)cc2)CC1`, for which the IC50 was > 10 µM (inactive). With `CC(c1nnc(SCn2nnc3ccccc3c2=O)n1-c1ccc(Cl)cc1)N(C)C` (stereo not drawn), the negative-log IC50 (pIC50) was 5.26. As to `CC(C)c1ccc(C(=O)CSc2n[nH]c(-c3ccncc3)n2)cc1`, the IC50 is > 10 µM (inactive). Still for that read-out and setting: next, `O=C(CN1CCN(c2ccccn2)CC1)Nc1ccc(Oc2ccccc2)cc1`: > 10 µM (inactive). The same measure, in the same setting: next, `CC12CCC(c3c(C(=O)Nc4nccs4)nn(-c4ccccc4)c31)C2(C)C` (stereo not drawn): > 10 µM (inactive). As to `O=C(C1CCCN(S(=O)(=O)c2ccc(Cl)cc2)C1)N(Cc1cccs1)C1CC1` (stereo not drawn), the pIC50 is 5.00. `O=S1(=O)C=C(Sc2nc3ccccc3s2)c2ccccc21`: the IC50 is > 10 µM (inactive). Still for that read-out and setting: next, `O=S(=O)(Cc1ccccc1Cl)N1CCN(Cc2ccc3c(c2)OCO3)CC1`: > 10 µM (inactive); `N#Cc1ccccc1Cn1cc(C(=O)c2cccs2)c2ccccc21`: > 10 µM (inactive). Take `O=C1C=C(c2ccccc2)C(=O)N1Nc1ccccc1`: the pIC50 was 4.65. `COc1ccc(OCCSc2nnc3sc4ccccc4n23)cc1`: the IC50 was > 10 µM (inactive).

`CCOc1ccc(NC(=O)N(C2CCCCC2)C(C)c2cccnc2)cc1` (stereo not drawn): the pIC50 is 4.81.

`O=C(NCC(c1cccnc1)N1CCN(c2ccc(F)cc2)CC1)OCc1ccccc1` (stereo not drawn): the negative logarithm of the IC50 (pIC50) was 4.65. On the same count and under the same terms, next, `Cc1ccc(C(=O)Nc2ccc(Cc3ccncc3)cc2)cc1[N+](=O)[O-]`: 4.63. In the case of `N=c1c2c(-c3ccccc3)c(-c3ccccc3)n(Cc3ccco3)c2ncn1Cc1ccccc1`, the IC50 was > 10 µM (inactive). For `O=[N+]([O-])c1cc(Cl)cc(/C=N\Nc2ccccn2)c1O`, the pIC50 is 5.47. For `CCCCCCOc1ccc(CN2CCN(CCO)CC2)cc1`, the IC50 was > 10 µM (inactive). For `O=C(OCn1ncc(Br)c(Br)c1=O)c1c(F)cccc1F`, the pIC50 is 4.79. In the case of `O=C(NCC1COc2ccccc2O1)c1ccc(Cl)cc1` (stereo not drawn), the pIC50 is 5.48. On to `Cc1[nH]nc(N=CC2=C(O)CC(C)(C)CC2=O)c1-c1ccc(Cl)cc1`, for which the IC50 is > 10 µM (inactive).
